According to publication PMC6680932, “Structure–Antioxidant–Antiproliferative Activity Relationships of Natural C7 and C7–C8 Hydroxylated Flavones and Flavanones” (Antioxidants, 2019):
Read-outs that look alike come from different tables or passages of the source.

Legend:
[1] = DPPH free radical scavenging activity assay; conditions: 10 min, 517 nm; mean ± SD
Method: (§1) The antioxidant capacity of flavonoids was measured in three separate tests: ABTS, DPPH, and ferric ion reducing antioxidant power (FRAP) assays (ABTS, DPPH, and FRAP reagents from Sigma-Aldrich). All tested compounds were dissolved in DMSO. All determinations were performed in triplicate. Standard curves were prepared for all assays using different concentrations of Trolox (6-hydroxy-2,5,7,8-tetramethylchroman-2-carboxylic acid) (Sigma-Aldrich). Trolox is a water-soluble analogue of vitamin E with high antioxidant activity, commonly used as a control and a reference in studies of antioxidant activity. The results were expressed as the equivalent of μmol Trolox per μmol of the test compound. The absorbance was measured using a UV-2401 PC spectrophotometer (Shimadzu, Kyoto, Japan). Concentrations of the tested samples were in the range from 50 µg/mL to 10 mg/mL.
The DPPH (2,2-diphenyl-1-picrylhydrazyl) radical scavenging activity of samples was determined according to the method described by Yen and Chen with some modifications. Samples (0.1 mL) of known concentration were mixed in polystyrene cuvettes with 2 mL of 0.04 mM DPPH in ethanol and 0.4 mL of ethanol. The absorbance was measured after 10 min at λ = 517 nm. The DPPH reagent was freshly prepared before each experiment.

[2] = tested on: MV-4-11 (biphenotypic B myelomonocytic leukemia); assay: Antiproliferative activity in vitro, MTT assay; assay type: cell-based, human; conditions: Homo sapiens, MV4-11, 72 h exposure, read-out: IC50 ± SD MV-4-11
[3] = FRAP (ferric ion reducing antioxidant power) assay; conditions: 10 min, 593 nm; mean ± SD
Method: as §1
The FRAP method is based on measuring the ability of antioxidants to reduce ferric 2,4,6-tris(2-pyridyl)-1,3,5-triazine [Fe(III)-TPTZ] in the blue colored ferrous form, which absorbs light at λ = 593 nm. The Fe(III)-TPTZ reagent was prepared as a mixture of acetate buffer (pH 3.6), 10 mM TPTZ in 40 mM HCl, and 20 mM FeCl3 in the ratio of 10:1:1 (v/v/v). The FRAP reagent was freshly prepared before each experiment. The samples (0.1 mL) were mixed in polystyrene cuvettes with 3 mL of ferric complex and 0.9 mL of distilled water. The absorbance was measured after 10 min at λ = 593 nm.

[4] = ABTS radical cation decolorization assay; conditions: 6 min incubation, 734 nm; mean ± SD
Method: as §1
The radical cation scavenging capacity of the tested compounds was examined against ABTS^+ (2,2’-azino-bis(3-ethylbenzo-thiazoline-6-sulfonic acid) according to the procedure described by Re et al. with some modifications. The test sample (30 μL) of known concentration was mixed in a polystyrene cuvette with 3 mL of ABTS solution with a measured absorption of 0.700 at a wavelength of λ = 734 nm. After 6 min of incubation, the absorption of samples was recorded. The ABTS reagent was freshly prepared before each experiment.

[5] = tested on: LoVo/DX (colon cancer doxorubicin-resistant); assay: Antiproliferative activity in vitro, SRB assay; assay type: cell-based, human; conditions: Homo sapiens, LoVo/DX, 72 h exposure, read-out: IC50 ± SD LoVo/DX
[6] = tested on: LoVo (colon cancer); assay: Antiproliferative activity in vitro, SRB assay; assay type: cell-based, human; conditions: 72 h exposure, SRB, read-out: IC50 ± SD LoVo
Method: (§2) The antiproliferative studies were performed in vitro using human cancer cell lines—MV-4-11 (biphenotypic B myelomonocytic leukemia), MCF7 (breast carcinoma), LoVo (colon cancer), LoVo/DX (colon cancer doxorubicin-resistant), and DU 145 (prostate cancer)—and normal human cell lines—MCF 10A (breast cells) and HLMEC (lung microvascular endothelial cells). The cell lines MV-4-11, LoVo, DU 145, and MCF 10A were obtained from the American Type Culture Collection (Rockville, Maryland, USA), MCF7 from the European Collection of Authenticated Cell Cultures (ECACC, Salisbury, UK), LoVo/DX courtesy of Professor E. Borowski (Technical University of Gdansk, Poland), and HLMECs (which had been already immortalized by transfection with pSV3-neoplasmid containing large T-antigen gene) were the kind gift of Professor Claudine Kieda (Center for Molecular Biophysics, Orleans, France). The cell lines are being maintained in the Hirszfeld Institute of Immunology and Experimental Therapy, Polish Academy of Sciences (HIIET, PAS), Wroclaw, Poland. All cell lines were grown at 37 °C with 5% CO2 humidified atmosphere. The MV-4-11 cells were cultured in RPMI 1640 medium with GlutaMAX (Gibco, Scotland, UK), supplemented with 1 mM sodium pyruvate and 10% fetal bovine serum (both from Sigma-Aldrich, Poznan, Poland). The MCF7 cells were cultured in Eagle medium (HIIET, PAS, Wroclaw, Poland) supplemented with 2 mM L-glutamine, 10% fetal bovine serum, 1% nonessential amino acid solution, and 0.8 mg/L of insulin (all from Sigma-Aldrich, Poznan, Poland). The LoVo and LoVo/DX cells were cultured in a 1:1 (v/v) mixture of RPMI 1640 and Opti-MEM (both HIIET, PAS, Wroclaw, Poland), supplemented with 1 mM sodium pyruvate, 2 mM L-glutamine, and 5% fetal bovine serum (all from Sigma-Aldrich, Poznan, Poland). For LoVo/DX cells, additionally 10 µg/100 mL of doxorubicin (Accord Healthcare) was added to the medium. DU 145 cells were cultured in Eagle medium (HIIET, PAS, Wroclaw, Poland) supplemented with 1 mM sodium pyruvate, 4 mM L-glutamine, and 10% fetal bovine serum (all from Sigma-Aldrich, Poznan, Poland). The MCF 10A cells were cultured in the F-12 nutrient mixture (Gibco, Scotland, UK), supplemented with 5% horse serum (Gibco, Scotland, UK), 0.05 μg/mL of cholera toxin (Vibrio cholerae), 0.5 μg/mL of hydrocortisone, 10 μg/mL of insulin, and 20 ng/mL of human epidermal growth factor (all from Sigma-Aldrich, Poznan, Poland). The HLMEC cells were cultured in the RPMI 1640 medium (HIIET, PAS, Wroclaw, Poland) with the addition of 2 mM L-glutamine (Sigma-Aldrich, Poznan, Poland) and 10% fetal bovine serum (GE Healthcare). All culture media were supplemented with 100 units/mL penicillin (Polfa Tarchomin S.A., Warsaw, Poland) and 100 µg/mL streptomycin (Sigma-Aldrich, Poznan, Poland). Twenty-four hours before addition of the tested agents, the cells were plated in 96-well plates (Sarstedt, Germany) at a density of 1 × 10^4 (1 × 10^3 for HLMEC and 0.75 × 10^4 for MCF7) cells per well in 100 μL of culture medium.
(§3) Tested compounds were dissolved in DMSO and then diluted in a 1:1 (v/v) mixture of RPMI 1640 (HIIET, PAS, Wroclaw, Poland) and Opti-MEM (Gibco, Scotland, UK) medium supplemented with 2 mM L-glutamine (Sigma-Aldrich, Poznan, Poland), 5% fetal bovine serum (GE Healthcare), 100 units/mL penicillin (Polfa Tarchomin S.A., Warsaw, Poland), and 100 µg/mL streptomycin (Sigma-Aldrich, Poznan, Poland). The antiproliferative effects of the flavonoids were examined after 72 h of exposure of the cultured cells to varying concentrations of the tested agents (from 0.1 to 100 μg/mL) using the MTT (for MV-4-11 cells) or SRB assay described below. Cisplatin (chemotherapy drug used to treat a number of cancers) was used as a positive control. The results are presented as an inhibitory concentration 50 (IC50), which is the concentration of the tested agent that inhibits proliferation of the cell population by 50%. IC50 values for each experiment were calculated separately. […]

[7] = tested on: MCF 10A (breast cells); assay: Antiproliferative activity in vitro, SRB assay; assay type: cell-based, human; conditions: Homo sapiens, MCF-10A; 72 h exposure, SRB; normal cell line; read-out: IC50 ± SD MCF 10A
Method: as §2, §3

[8] = tested on: HLMEC (lung microvascular endothelial cells); assay: Antiproliferative activity in vitro, SRB assay; assay type: cell-based, human; conditions: Homo sapiens, Endothelial cell; 72 h exposure, SRB; normal cell line; read-out: IC50 ± SD HLMEC
Method: as §2, §3

[9] = tested on: MCF7 (breast carcinoma); assay: Antiproliferative activity in vitro, SRB assay; assay type: cell-based, human; conditions: Homo sapiens, MCF7; 72 h exposure, SRB; read-out: IC50 ± SD MCF7
Method: as §2, §3

[10] = tested on: DU 145 (prostate cancer); assay: Antiproliferative activity in vitro, SRB assay; assay type: cell-based, human; conditions: Homo sapiens, DU-145; 72 h exposure, SRB; read-out: IC50 ± SD DU 145
[11] = Stability of flavonoids in DMSO (control), HPLC; assay type: physicochemical; conditions: 3 h of incubation
Method: (§4) Flavonoids were dissolved (as described in Section 2.4) to the concentration of 100 µg/mL. The solutions corresponding to the solutions before the administration to the cell cultures were incubated in 96-well plates for 3 h and transferred to microtubes containing 400 µL of cold methanol (−20 °C) and kept at −20 °C for 1 h. After centrifugation at 12,000× g for 10 min, samples were analyzed by HPLC. Control experiments were also carried out to determine the stability of flavonoids in DMSO under analogous conditions.

[12] = Stability of flavonoids before administration to the cell cultures (diluted in RPMI 1640/Opti-MEM medium), HPLC; assay type: physicochemical; conditions: 100 µg/mL, medium with 2 mM L-glutamine, 5% fetal bovine serum, penicillin, streptomycin; 3 h incubation
Method: Tested compounds were dissolved in DMSO and then diluted in a 1:1 (v/v) mixture of RPMI 1640 (HIIET, PAS, Wroclaw, Poland) and Opti-MEM (Gibco, Scotland, UK) medium supplemented with 2 mM L-glutamine (Sigma-Aldrich, Poznan, Poland), 5% fetal bovine serum (GE Healthcare), 100 units/mL penicillin (Polfa Tarchomin S.A., Warsaw, Poland), and 100 µg/mL streptomycin (Sigma-Aldrich, Poznan, Poland). The antiproliferative effects of the flavonoids were examined after 72 h of exposure of the cultured cells to varying concentrations of the tested agents (from 0.1 to 100 μg/mL) using the MTT (for MV-4-11 cells) or SRB assay described below. Cisplatin (chemotherapy drug used to treat a number of cancers) was used as a positive control. The results are presented as an inhibitory concentration 50 (IC50), which is the concentration of the tested agent that inhibits proliferation of the cell population by 50%. IC50 values for each experiment were calculated separately.
as §4

Row | SMILES | IC50 [2] | IC50 [5] | IC50 [6] | IC50 ([6]; Homo sapiens, LoVo, 72 h) | IC50 [9] | IC50 [10] | compound observed after incubation in DMSO [11] | stability after dilution with 1:1 RPMI 1640/Opti-MEM medium [12] | TEAC DPPH [1] | TEAC FRAP [3] | TEAC ABTS [4] | IC50 [7] | IC50 [8]
1 | O=c1cc(-c2ccc(O)c(O)c2)oc2cc(O)cc(O)c12 [Compound 3, luteolin] | 8.73 ± 2.23 µM | 13.7 ± 1.65 µM | 13.5 ± 0.65 µM | 14 to 15 µM | 25.5 ± 6.33 µM | 21.9 ± 6.11 µM |  |  | 10.50 ± 0.117 µmol trolox per µmol of tested | 17.686 ± 0.327 µmol trolox per µmol of tested | 16.645 ± 0.897 µmol trolox per µmol of tested | 33.1 ± 10.3 µM | 9.22 ± 0.64 µM
2 | O=C1C[C@@H](c2ccccc2)Oc2cc(O)cc(O)c21 [Compound 5, Pinocembrin] | 99.1 ± 34.1 µM | 67 ± 15.8 µM |  | 116 ± 10.6 µM | 148 ± 6.57 µM | 119 ± 22.4 µM |  |  | 0.005 ± 0.001 µmol trolox per µmol of tested |  | 0.165 ± 0.009 µmol trolox per µmol of tested | 125 ± 5.77 µM | 96.6 ± 7.23 µM
3 | COc1ccc([C@@H]2CC(=O)c3c(O)cc(O)cc3O2)cc1O [Compound 8, hesperetin] | 140 ± 12.9 µM | 77.2 ± 19.4 µM |  | 104 ± 5.55 µM | 167 ± 13.1 µM | 215 ± 32.1 µM |  |  | 0.098 ± 0.002 µmol trolox per µmol of tested | 4.025 ± 0.175 µmol trolox per µmol of tested | 13.254 ± 0.123 µmol trolox per µmol of tested | 207 ± 23.4 µM | 98.3 ± 7.62 µM

Second part, led by results:

Row | IC50 [2] | IC50 [5] | IC50 [6] | IC50 ([6]; Homo sapiens, LoVo, 72 h) | IC50 [9] | IC50 [10] | compound observed after incubation in DMSO [11] | stability after dilution with 1:1 RPMI 1640/Opti-MEM medium [12] | SMILES | TEAC DPPH [1] | TEAC FRAP [3] | TEAC ABTS [4] | IC50 [7] | IC50 [8]
4 |  |  |  |  |  |  | over 99% | complete decomposition | O=C1C[C@@H](c2ccc(O)cc2)Oc2c(O)c(O)cc(O)c21 [Compound 14, 8-hydroxynaringenin] |  |  |  |  | 
5 |  |  |  |  |  |  | over 99% | complete decomposition | O=C1C[C@@H](c2ccc(O)cc2)Oc2cc(O)c(O)c(O)c21 [Compound 15, 6-hydroxynaringenin] |  |  |  |  | 
